Entries after “also recorded” stand apart in the source; their conditions may differ. Where a name gives a salt, the structure may show the parent alone.
How the values were obtained:
Format in all cases: in vivo, Vitis vinifera
[1] = test system: Crimson Seedless grape clusters; assay: Field study, Example 1: visual rating of red grape coloration, % of berries with marketable color
Experimental: (§1) A field study was conducted in California to compare the efficacy of S-ABA to 3′-methyl-(S)-ABA in promoting red grape coloration. S-ABA and 3′-methyl-(S)-ABA were formulated as aqueous solutions of the corresponding potassium salt to the desired concentrations with the final pHs being between 6.5 and 7.2. Individual Crimson Seedless grape clusters were selected and tagged, with 20 tagged clusters per treatment. The treatments were applied as cluster-directed sprays using a trigger sprayer at 15 to 20 mL per cluster to ensured good coverage of the grapes. Application of 15 to 20 milliliters per cluster simulates application of about 109 gallons per acre directed at the approximately 40 clusters per vine in a vineyard with 518 vines per acre. Based on these estimates, Applicant determined the approximate grams per acre. The equation is as follows: 20 ml/cluster×40 cluster/vine=800 ml/vine×518 vine/acre=(414,400 ml/acre)/(1000 ml/liter)=414 liters/acre. An estimation of grams per acre was made by multiplying the mg per cluster with 20,720 clusters/acre (40 clusters/vine×518 vines/acre=20,720 clusters/acre).
(§2) Periodically after the treatments, the grape clusters were evaluated for color development by visual ratings over a six-week period. The coloration was graded on a 1 to 8 grading scale, where a rating of 1 has very little or no red color and a rating of 8 has a deep or dark red color. The percentages of berries that reached marketable red coloration for each cluster were averaged and recorded for each treatment. Additionally, representative berries from each treatment group were harvested about four weeks after treatment and analyzed for anthocyanin content.

[2] = test system: Crimson Seedless grapes; assay: Trial, Example 2: visual color rating of grape clusters on a 1 to 8 scale; design: key to Color Ratings: 1 = little/no red color, 8 = deep/dark red color; conditions: for Color Ratings: applied day 0 and day 11, 1 to 8 grading scale
Experimental: Another trial was conducted in California on Crimson Seedless grapes to compare the efficacy of S-ABA, 3′-methyl-(S)-ABA and 3′-propargyl-(S)-ABA in promoting coloration. All three compounds were formulated as aqueous solutions of the corresponding potassium salt to the desired concentrations, with the final pHs being between 6.5 and 7.2. Individual Crimson Seedless grape clusters were selected and tagged, with 20 tagged clusters per treatment. The solutions were applied as cluster-directed sprays using a trigger sprayer at 15 to 20 milliliters per cluster which ensured good coverage of the grapes. The treatments were applied on day 0 and day 11 of the trial. Periodically during the trial, the grape clusters were evaluated for color development by visual ratings over a six-week period and the coloration was graded on a 1 to 8 grading scale, where a rating of 1 has very little or no red color and a rating of 8 has a deep or dark red color.

[3] = test system: Crimson Seedless grape clusters; assay: Field study, Example 1: anthocyanin content of berries harvested about four weeks after treatment; conditions: berries harvested about four weeks after treatment
Experimental: as §1, §2

## CC1=CC(=O)CC(C)(C)[C@@]1(O)/C=C/C(C)=C/C(=O)O [S-ABA, K^+ salt, (S)-abscisic acid]
[1]; 200 ppm, 3-4 mg/cluster, 60-80 grams/acre, 7 DAT
  Coloring Ratings, % of the berries with marketable color: 41%
[1]; 200 ppm, 3-4 mg/cluster, 60-80 grams/acre, 14 DAT
  Coloring Ratings, % of the berries with marketable color: 78%
[1]; 200 ppm, 3-4 mg/cluster, 60-80 grams/acre, 27 DAT
  Coloring Ratings, % of the berries with marketable color: 84%
[1]; 200 ppm, 3-4 mg/cluster, 60-80 grams/acre, 33 DAT
  Coloring Ratings, % of the berries with marketable color: 88%
[1]; 200 ppm, 3-4 mg/cluster, 60-80 grams/acre, 43 DAT
  Coloring Ratings, % of the berries with marketable color: 89%
[1]; 400 ppm, 6-8 mg/cluster, 120-160 grams/acre, 7 DAT
  Coloring Ratings, % of the berries with marketable color: 47%
[1]; 400 ppm, 6-8 mg/cluster, 120-160 grams/acre, 14 DAT
  Coloring Ratings, % of the berries with marketable color: 80%
[1]; 400 ppm, 6-8 mg/cluster, 120-160 grams/acre, 27 DAT
  Coloring Ratings, % of the berries with marketable color: 85%
[1]; 400 ppm, 6-8 mg/cluster, 120-160 grams/acre, 33 DAT
  Coloring Ratings, % of the berries with marketable color: 88%
[1]; 400 ppm, 6-8 mg/cluster, 120-160 grams/acre, 43 DAT
  Coloring Ratings, % of the berries with marketable color: 91%
[1]; 400 ppm, 6 to 8 mg per cluster
  time to reach ~90% marketable coloration: five weeks; also recorded: five or six weeks
[2]; 200 ppm, 3-4 mg/cluster, 60-80 g/acre, 3 DAT
  Color Ratings: 1
[2]; 200 ppm, 3-4 mg/cluster, 60-80 g/acre, 10 DAT
  Color Ratings: 2.2
[2]; 200 ppm, 3-4 mg/cluster, 60-80 g/acre, 14 DAT
  Color Ratings: 2.6
[2]; 200 ppm, 3-4 mg/cluster, 60-80 g/acre, 21 DAT
  Color Ratings: 4.1
[2]; 200 ppm, 3-4 mg/cluster, 60-80 g/acre, 31 DAT
  Color Ratings: 5.1
[2]; 200 ppm, 3-4 mg/cluster, 60-80 g/acre, 41 DAT (end of six-week evaluation)
  Color Ratings: 5.4
[2]; 400 ppm, 6-8 mg/cluster, 120-160 g/acre, 3 DAT
  Color Ratings: 1
[2]; 400 ppm, 6-8 mg/cluster, 120-160 g/acre, 10 DAT
  Color Ratings: 2.9
[2]; 400 ppm, 6-8 mg/cluster, 120-160 g/acre, 14 DAT
  Color Ratings: 3.5
[2]; 400 ppm, 6-8 mg/cluster, 120-160 g/acre, 21 DAT
  Color Ratings: 4.5
[2]; 400 ppm, 6-8 mg/cluster, 120-160 g/acre, 31 DAT
  Color Ratings: 5.9
[2]; 400 ppm, 6-8 mg/cluster, 120-160 g/acre, 41 DAT (end of six-week evaluation)
  Color Ratings: 6.4
[2]; six-week evaluation period
  red color development in comparison with the untreated control: dose-dependent accelerated red color development
[3]; 3-4 mg/cluster (200 ppm, 15-20 mL)
  Total Anthocyanin Content: 73 mg/L
[3]; 6-8 mg/cluster (400 ppm, 15-20 mL)
  Total Anthocyanin Content: 83 mg/L

— patent publication US20160338351A1, “(S)-ABSCISIC ACID DERIVATIVES FOR ENHANCED GRAPE COLORATION” (Valent BioSciences Corporation, priority 2015, published 2016)
